In patent US6387605B1, “Co-developers for black-and-white photothermographic elements” (Eastman Kodak Company, priority 1999, dated 2002):

Assay: Solubility of co-developers in coating solvents (Example 5)
Type: physicochemical
Procedure: Solubility of Co-developers: In order for the co-developer to perform effectively, some quantity of the co-developer must be soluble in the coating solvent for the emulsion layer or topcoat layer. 2-Butanone MEK) and methanol are typical solvents for these layers. Solubility will vary depending on the structure of the co-developer, the composition of the layer containing the co-developer, and the solvents employed.
The photothermographic elements of this invention typically require from 10 mg to 100 mg of co-developer in 40 g of photothermographic emulsion in 25 g 2-butanone in order to achieve high contrast. The photothermographic emulsions are held at 50° F. (10° C.). As this is below room temperature, the solubility is below that of the co-developer at room temperature.
The solubility of co-developer CI-03 in 25 g of 2-butanone (MEK) and in 25 g of methanol was determined.

Structure (SMILES): O=C1NC(=O)C(=CO)C(=O)N1 [CI-03, 5-(Hydroxymethylone)-2,4,5(1H3H,5H)-pyrimdine-trione]
- Solubility in MEK (2.5 mg in 25 g 2-butanone, room temperature): Soluble at room temperature.
- Solubility in MEK (5.0 mg in 25 g 2-butanone, 90° F. (32° C.)): Soluble at 90° F. (32° C.).
- Solubility in MEK (5.0 mg in 25 g 2-butanone, room temperature): Insoluble at room temperature.
- Solubility in MeOH (5 mg in 25 g methanol, room temperature): Soluble at room temperature.
- Solubility in MEK (12.5 mg in 25 g 2-butanone, 90° F. (32° C.)): Insoluble at 90° F. (32° C.).
- Solubility in MeOH (12.5 mg in 25 g methanol, 90° F. (32° C.)): Soluble at 90° F. (32° C.).
- Solubility in MeOH (12.5 mg in 25 g methanol, room temperature): Insoluble at room temperature.
- Solubility in MEK (25 mg in 25 g 2-butanone, 90° F. (32° C.)): Insoluble at 90° F. (32° C.).
- Solubility in MeOH (25 mg in 25 g methanol, 90° F. (32° C.)): Soluble at 90° F. (32° C.).
- Solubility in MeOH (25 mg in 25 g methanol, room temperature): Insoluble at room temperature.
- Solubility in organic solvents (Example 1, sample 1-28): Compound CI-03 was insoluble in organic solvents.
